{"source": "patent US20140135310A1", "about": "“SULPHONAMIDE DERIVATIVES OF ALICYCLIC AMINES FOR THE TREATMENT OF CENTRAL NERVOUS SYSTEM DISEASES” (Adamed Sp. z o.o., priority 2011, published 2014)", "key": {"[1]": {"molecular_target": "5-HT7 serotoninergic receptors (Homo sapiens, UniProt P34969)", "sequence (P34969 whole entry)": "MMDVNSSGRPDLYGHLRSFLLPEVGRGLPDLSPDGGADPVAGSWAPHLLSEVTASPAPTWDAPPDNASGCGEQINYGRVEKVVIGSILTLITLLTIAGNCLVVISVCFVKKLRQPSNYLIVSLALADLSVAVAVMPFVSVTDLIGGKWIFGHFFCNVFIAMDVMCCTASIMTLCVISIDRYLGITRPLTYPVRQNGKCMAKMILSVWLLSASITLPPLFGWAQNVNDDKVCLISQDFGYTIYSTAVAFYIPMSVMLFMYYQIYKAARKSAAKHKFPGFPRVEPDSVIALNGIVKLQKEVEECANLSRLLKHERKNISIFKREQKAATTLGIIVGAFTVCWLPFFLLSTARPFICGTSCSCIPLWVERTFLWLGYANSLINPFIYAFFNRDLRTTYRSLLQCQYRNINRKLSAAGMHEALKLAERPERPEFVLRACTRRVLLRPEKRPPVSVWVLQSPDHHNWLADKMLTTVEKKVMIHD", "assay": "Cellular functional assay, 5-HT7 serotoninergic receptors", "format": "cell-based", "settings": "agonist mode; percent of control specific agonist response", "method_in_brief": "(§1)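 Responses expressed as percent of control specific agonist response; EC50 or IC50 from Hill-equation nonlinear fits of mean replicate concentration-response curves. For antagonists, Kb derived by modified Cheng-Prusoff using reference agonist concentration and its EC50.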"}, "[2]": {"molecular_target": "D3 dopaminergic receptors (Homo sapiens, UniProt P35462)", "sequence (P35462 whole entry)": "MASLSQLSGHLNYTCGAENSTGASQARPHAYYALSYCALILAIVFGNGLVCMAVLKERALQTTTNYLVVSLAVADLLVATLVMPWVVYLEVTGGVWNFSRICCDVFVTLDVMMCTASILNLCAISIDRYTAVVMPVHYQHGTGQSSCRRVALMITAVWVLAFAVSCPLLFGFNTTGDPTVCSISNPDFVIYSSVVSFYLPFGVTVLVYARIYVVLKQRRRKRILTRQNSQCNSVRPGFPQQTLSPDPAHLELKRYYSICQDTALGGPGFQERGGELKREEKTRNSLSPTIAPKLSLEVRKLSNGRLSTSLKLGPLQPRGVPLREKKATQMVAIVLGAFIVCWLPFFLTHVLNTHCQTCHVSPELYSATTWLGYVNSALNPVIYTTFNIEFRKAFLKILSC", "assay": "Cellular functional assay, D3 dopaminergic receptors", "format": "cell-based", "settings": "D3 (h), CHO cells; for D3 ag [%]: agonism, percent of control specific agonist response (0.3 μM dopamine for control); for D3 antag [%]: antagonism, stimulus dopamine (10 nM)", "method_in_brief": "as §1"}, "[3]": {"molecular_target": "D2 dopaminergic receptors (Homo sapiens, UniProt P14416)", "sequence (P14416 whole entry)": "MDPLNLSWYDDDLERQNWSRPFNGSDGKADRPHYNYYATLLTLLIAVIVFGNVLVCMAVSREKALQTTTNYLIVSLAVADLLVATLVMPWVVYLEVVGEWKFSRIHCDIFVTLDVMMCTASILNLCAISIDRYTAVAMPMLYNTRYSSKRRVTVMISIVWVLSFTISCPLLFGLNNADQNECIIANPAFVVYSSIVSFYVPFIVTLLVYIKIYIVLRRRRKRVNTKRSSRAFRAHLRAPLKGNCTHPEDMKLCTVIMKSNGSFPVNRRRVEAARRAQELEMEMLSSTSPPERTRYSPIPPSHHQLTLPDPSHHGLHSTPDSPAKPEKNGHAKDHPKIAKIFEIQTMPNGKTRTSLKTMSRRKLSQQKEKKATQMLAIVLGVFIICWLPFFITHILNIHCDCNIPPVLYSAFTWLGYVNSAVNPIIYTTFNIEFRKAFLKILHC", "assay": "Cellular functional assay, D2 dopaminergic receptors", "format": "cell-based", "settings": "D2S (h), HEK-293 cells; for D2 ag [%]: agonism, percent of control specific agonist response (3 μM dopamine for control); for D2 antag [%]: antagonism, stimulus dopamine (30 nM)", "method_in_brief": "as §1"}, "[4]": {"molecular_target": "T1, 5-HT1A serotoninergic receptors (Homo sapiens, UniProt P08908)", "T1 sequence (P08908 1-422)": "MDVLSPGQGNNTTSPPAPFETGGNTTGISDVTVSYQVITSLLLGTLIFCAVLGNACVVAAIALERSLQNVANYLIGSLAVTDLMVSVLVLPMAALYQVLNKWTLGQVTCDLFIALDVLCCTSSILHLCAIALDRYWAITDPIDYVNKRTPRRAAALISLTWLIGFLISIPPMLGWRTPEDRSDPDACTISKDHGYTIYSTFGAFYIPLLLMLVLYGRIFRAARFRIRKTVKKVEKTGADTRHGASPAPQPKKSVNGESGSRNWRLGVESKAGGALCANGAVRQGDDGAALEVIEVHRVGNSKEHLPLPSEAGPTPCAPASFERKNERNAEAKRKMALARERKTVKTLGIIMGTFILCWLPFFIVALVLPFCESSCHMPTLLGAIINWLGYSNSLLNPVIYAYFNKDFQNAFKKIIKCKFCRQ", "assay": "Cellular functional assay, 5-HT1A serotoninergic receptors", "format": "cell-based", "settings": "agonist mode; percent of control specific agonist response", "method_in_brief": "as §1"}, "[5]": {"molecular_target": "T2, 5-HT2C serotoninergic receptors (Homo sapiens, UniProt P28335)", "T2 sequence (P28335 33-458)": "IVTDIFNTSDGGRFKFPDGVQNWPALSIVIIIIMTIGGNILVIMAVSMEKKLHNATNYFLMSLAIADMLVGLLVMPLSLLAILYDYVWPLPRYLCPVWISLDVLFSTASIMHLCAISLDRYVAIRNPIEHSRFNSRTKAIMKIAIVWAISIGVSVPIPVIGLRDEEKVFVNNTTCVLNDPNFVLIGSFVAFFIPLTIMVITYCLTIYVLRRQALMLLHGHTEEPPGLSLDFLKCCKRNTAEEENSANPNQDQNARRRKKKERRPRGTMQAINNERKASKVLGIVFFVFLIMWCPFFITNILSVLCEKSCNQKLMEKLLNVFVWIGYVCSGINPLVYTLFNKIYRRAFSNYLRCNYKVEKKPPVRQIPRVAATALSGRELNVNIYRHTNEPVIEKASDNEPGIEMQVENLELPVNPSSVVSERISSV", "assay": "Cellular functional assay, 5-HT2C serotoninergic receptors", "format": "cell-based", "description": "The results are expressed as a percent of control specific agonist response ((measured specific response/control specific agonist response)×100) obtained in the presence of the test compounds.\nThe EC50 values (concentration producing a half-maximal specific response) and IC50 values (concentration causing a half-maximal inhibition of the control specific agonist response) were determined by non-linear regression analysis of the concentration-response curves generated with mean replicate values using Hill equation curve fitting (Y=D+[(A−D)/(1+(C/C50)nH)], where Y=specific response, D=minimum specific response, A=maximum specific response, C=compound concentration, and C50=EC50 or IC50, and nH=slope factor). This analysis was performed using a software developed at Cerep (Hill software) and validated by comparison with data generated by the commercial software SigmaPlot® 4.0 for Windows® (© 1997 by SPSS Inc.).\nFor the antagonists, the apparent dissociation constants (Kb) were calculated using the modified Cheng Prusoff equation (Kb=IC50/(1+(A/EC50A)), where A=concentration of reference agonist in the assay, and EC50A=EC50 value of the reference agonist)."}, "[6]": {"molecular_target": "T3, 5-HT reuptake (rat brain synaptosomes) (Rattus norvegicus, UniProt P31652)", "T3 construct": "measuring [^3H]5-HT incorporation into rat brain synaptosomes; from tissue; host or cells: rat brain synaptosomes", "T3 sequence (P31652 whole entry)": "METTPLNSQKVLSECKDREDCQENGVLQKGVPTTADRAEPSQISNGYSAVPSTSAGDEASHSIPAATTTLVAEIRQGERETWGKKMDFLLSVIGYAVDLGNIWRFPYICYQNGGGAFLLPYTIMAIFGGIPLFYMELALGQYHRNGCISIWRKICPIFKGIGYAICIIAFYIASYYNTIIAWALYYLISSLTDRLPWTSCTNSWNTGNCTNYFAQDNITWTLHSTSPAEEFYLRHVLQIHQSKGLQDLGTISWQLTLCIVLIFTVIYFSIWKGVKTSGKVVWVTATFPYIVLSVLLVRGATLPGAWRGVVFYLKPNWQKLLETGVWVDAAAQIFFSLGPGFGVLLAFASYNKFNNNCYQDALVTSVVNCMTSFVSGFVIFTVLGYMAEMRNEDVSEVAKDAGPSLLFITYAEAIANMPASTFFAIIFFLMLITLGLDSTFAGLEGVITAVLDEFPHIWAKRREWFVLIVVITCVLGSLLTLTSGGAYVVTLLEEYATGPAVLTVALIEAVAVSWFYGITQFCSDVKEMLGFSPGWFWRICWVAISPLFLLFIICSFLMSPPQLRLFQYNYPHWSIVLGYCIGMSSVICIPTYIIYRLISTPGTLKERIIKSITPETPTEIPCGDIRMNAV", "assay": "5-HT reuptake, [3H]5-HT incorporation into rat brain synaptosomes", "format": "biochemical", "settings": "15 min/37° C., read-out: SERT IC50", "description": "5-HT reuptake was tested according to Perovic, S. and Muller, W.E.G. (1995) Arzneim-Forsch. Drug Res., 45: 1145-1148 by measuring [^3H]5-HT incorporation into rat brain synaptosomes. Assay conditions are as follows:\nTracer: [^3H]5-HT (0.2 μCi/ml)\nIncubation: 15 min/37° C."}}}
{"smiles": "Cc1c(S(=O)(=O)NCC2CN(CCCc3noc4cc(F)ccc34)C2)sc2ccc(Cl)cc12", "note": "[Compound 131, 5-Chloro-N-[[1-[3-(6-fluoro-1,2-benzoxazol-3-yl)propyl]azetidin-3-yl]-methyl]-3-methyl-benzothiophene-2-sulphonamide]", "values": [{"measurement": "5-HT7 ag [%]", "setting": "[1]", "value": 1, "unit": "%"}, {"measurement": "D3 ag [%]", "setting": "[2]", "value": "−13", "unit": "%"}, {"measurement": "D3 antag [%]", "setting": "[2]", "value": 55, "unit": "%"}, {"measurement": "D2 ag [%]", "setting": "[3]", "value": 5, "unit": "%"}, {"measurement": "D2 antag [%]", "setting": "[3]", "value": 20, "unit": "%"}]}
{"smiles": "O=S(=O)(NCC1CN(CCCc2noc3cc(F)ccc23)C1)c1ccc2ccccc2c1", "note": "[Compound 134, N-[[1-[3-(6-Fluoro-1,2-benzoxazol-3-yl)propyl]azetidin-3-yl]methyl]-naphthalene-2-sulphonamide]", "values": [{"measurement": "5-HT7 ag [%]", "setting": "[1]", "value": 1, "unit": "%"}, {"measurement": "D2 ag [%]", "setting": "[3]", "value": 6, "unit": "%"}, {"measurement": "D2 antag [%]", "setting": "[3]", "value": 47, "unit": "%"}]}
{"smiles": "O=S(=O)(NCC1CN(CCOc2cccc3ccccc23)C1)c1ccc2ccccc2c1", "note": "[Compound 122, N-[[1-[2-(1-Naphthyloxy)ethyl]azetidin-3-yl]methyl]naphthalene-2-sulphonamide]", "values": [{"measurement": "5-HT1A ag [%]", "setting": "[4]", "value": 35, "unit": "%"}, {"measurement": "5-HT7 ag [%]", "setting": "[1]", "value": 21, "unit": "%"}, {"measurement": "D3 ag [%]", "setting": "[2]", "value": 38, "unit": "%"}, {"measurement": "D3 antag [%]", "setting": "[2]", "value": 56, "unit": "%"}, {"measurement": "D2 ag [%]", "setting": "[3]", "value": 33, "unit": "%"}, {"measurement": "D2 antag [%]", "setting": "[3]", "value": 62, "unit": "%"}, {"measurement": "5-HT2C ag [%]", "setting": "[5]; agonist mode, percent of control specific agonist response", "value": 78, "unit": "%"}, {"measurement": "5-HT2C antag [%]", "setting": "[5]; antagonist mode", "value": "−10", "unit": "%"}]}
{"smiles": "O=S(=O)(NCC1CCN(CCOc2cccc3ccccc23)C1)c1ccc2ccccc2c1", "note": "(stereo not shown) [Compound 124, N-[[1-[2-(1-Naphthyloxy)ethyl]pyrrolidin-3-yl]methyl]naphthalene-2-sulphonamide]", "values": [{"measurement": "5-HT1A ag [%]", "setting": "[4]", "value": 16, "unit": "%"}, {"measurement": "5-HT7 ag [%]", "setting": "[1]", "value": 10, "unit": "%"}, {"measurement": "D3 ag [%]", "setting": "[2]", "value": 11, "unit": "%"}, {"measurement": "D3 antag [%]", "setting": "[2]", "value": 43, "unit": "%"}, {"measurement": "D2 ag [%]", "setting": "[3]", "value": 33, "unit": "%"}, {"measurement": "D2 antag [%]", "setting": "[3]", "value": 44, "unit": "%"}]}
{"smiles": "Cc1cccc(S(=O)(=O)NC2CCN(CCCc3c[nH]c4ccc(Cl)cc34)C2)c1", "note": "(stereo not shown) [Compound 86, N-[1-[3-(5-chloro-1H-indol-3-yl)propyl]pyrrolidin-3-yl]-3-methyl-benzenesulphonamide]", "values": [{"measurement": "IC50", "setting": "[6]", "value": 17, "unit": "nM"}]}
{"smiles": "Cc1c(S(=O)(=O)NCC2CN(CCCc3noc4cc(F)ccc34)C2)sc2ccc(F)cc12", "note": "[Compound 130, 5-Fluoro-N-[[1-[3-(6-fluoro-1,2-benzoxazol-3-yl)propyl]azetidin-3-yl]methyl]-3-methyl-benzothiophene-2-sulphonamide]", "values": [{"measurement": "5-HT7 ag [%]", "setting": "[1]", "value": 0, "unit": "%"}, {"measurement": "D3 ag [%]", "setting": "[2]", "value": 5, "unit": "%"}, {"measurement": "D3 antag [%]", "setting": "[2]", "value": 61, "unit": "%"}, {"measurement": "D2 ag [%]", "setting": "[3]", "value": 6, "unit": "%"}, {"measurement": "D2 antag [%]", "setting": "[3]", "value": 34, "unit": "%"}]}
